Experiment [1] concerns the target T1, Mitogen-activated protein kinase kinase kinase kinase 2 (Homo sapiens) (UniProt Q12851).
T1 sequence (whole entry): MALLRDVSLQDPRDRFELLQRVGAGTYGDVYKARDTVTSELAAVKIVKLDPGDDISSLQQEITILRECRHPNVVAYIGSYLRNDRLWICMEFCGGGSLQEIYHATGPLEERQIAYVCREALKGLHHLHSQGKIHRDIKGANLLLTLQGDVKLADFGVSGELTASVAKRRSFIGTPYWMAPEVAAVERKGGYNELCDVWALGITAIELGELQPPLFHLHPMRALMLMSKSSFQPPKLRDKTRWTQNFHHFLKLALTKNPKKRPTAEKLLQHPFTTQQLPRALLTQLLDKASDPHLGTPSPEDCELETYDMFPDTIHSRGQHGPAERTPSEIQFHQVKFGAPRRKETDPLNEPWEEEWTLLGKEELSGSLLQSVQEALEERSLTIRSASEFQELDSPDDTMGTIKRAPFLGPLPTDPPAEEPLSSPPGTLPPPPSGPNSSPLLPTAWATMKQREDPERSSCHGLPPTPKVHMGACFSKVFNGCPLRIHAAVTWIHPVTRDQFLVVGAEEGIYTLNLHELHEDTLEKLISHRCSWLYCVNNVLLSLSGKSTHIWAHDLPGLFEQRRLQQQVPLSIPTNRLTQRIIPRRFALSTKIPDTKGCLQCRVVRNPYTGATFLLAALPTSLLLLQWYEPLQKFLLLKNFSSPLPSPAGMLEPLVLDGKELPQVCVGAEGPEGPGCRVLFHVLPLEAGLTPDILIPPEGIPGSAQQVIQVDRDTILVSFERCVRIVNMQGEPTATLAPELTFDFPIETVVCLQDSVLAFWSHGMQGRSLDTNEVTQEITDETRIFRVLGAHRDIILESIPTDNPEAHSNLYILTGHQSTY
Briefly: Inhibition of human MAP4K2 assessed as residual activity at 1 uM using 3xChocktide-PKC as substrate in presence of 33P-ATP by ProQinase assay relative to control.

Experiment [2] addresses Vascular endothelial growth factor receptor 2 (Homo sapiens) (UniProt P35968). In words: Inhibition of VEGFR2 (unknown origin) assessed as remaining activity at 1 uM by Kinome scan method relative to control.
The test system of experiment [3] is Tyrosine-protein kinase ABL1 (Homo sapiens), P00519 [Q252H]. Briefly: Inhibition of human ABL1 Q252H mutant assessed as residual activity at 1 uM using Poly(Ala,Glu,Lys,Tyr)6:2:5:1 as substrate in presence of 33P-ATP by ProQinase assay relative to control.
The target of experiment [4] is Glycogen synthase kinase-3 beta (Homo sapiens) (UniProt P49841). Briefly: Inhibition of GSK3beta (unknown origin) assessed as remaining activity at 1 uM by Kinome scan method relative to control.
The target in experiment [5] is Myosin-IIIa (Homo sapiens) (UniProt Q8NEV4). In words: Inhibition of MYO3A (unknown origin) assessed as remaining activity at 1 uM by Kinome scan method relative to control.
The target of experiment [6] is SRSF protein kinase 3 (Homo sapiens) (UniProt Q9UPE1). In words: Inhibition of human STK23 assessed as residual activity at 1 uM using RBER-CHKtide as substrate in presence of 33P-ATP by ProQinase assay relative to control.
Sequence of SRSF protein kinase 3 (Homo sapiens) (Q9UPE1 whole entry): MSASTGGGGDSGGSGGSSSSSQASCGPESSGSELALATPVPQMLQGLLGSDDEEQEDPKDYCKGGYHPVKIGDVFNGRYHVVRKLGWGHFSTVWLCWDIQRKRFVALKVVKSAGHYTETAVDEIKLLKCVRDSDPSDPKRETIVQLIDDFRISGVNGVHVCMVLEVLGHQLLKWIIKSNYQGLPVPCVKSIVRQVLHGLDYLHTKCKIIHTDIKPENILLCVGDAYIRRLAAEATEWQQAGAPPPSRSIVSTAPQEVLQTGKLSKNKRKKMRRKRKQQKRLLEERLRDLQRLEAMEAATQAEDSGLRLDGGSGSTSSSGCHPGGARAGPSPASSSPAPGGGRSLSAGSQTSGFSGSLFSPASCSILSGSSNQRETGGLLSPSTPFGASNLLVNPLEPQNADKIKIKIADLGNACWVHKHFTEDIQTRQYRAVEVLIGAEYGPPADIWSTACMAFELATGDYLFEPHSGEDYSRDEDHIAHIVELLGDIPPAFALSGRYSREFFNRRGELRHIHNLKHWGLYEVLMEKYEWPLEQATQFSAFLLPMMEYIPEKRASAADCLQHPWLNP
Experiment [7] relates to Epidermal growth factor receptor (Homo sapiens), P00533 [G719S]. In words: Inhibition of human EGFR G719S mutant assessed as residual activity at 1 uM using PolyEY as substrate in presence of 33P-ATP by ProQinase assay relative to control.
The target in experiment [8] is Mitogen-activated protein kinase kinase kinase kinase 4 (Homo sapiens) (UniProt O95819). In words: Inhibition of human MAP4K4 assessed as residual activity at 1 uM using casein as substrate in presence of 33P-ATP by ProQinase assay relative to control.
Sequence of Mitogen-activated protein kinase kinase kinase kinase 4 (Homo sapiens) (O95819 2-1239 limits assumed): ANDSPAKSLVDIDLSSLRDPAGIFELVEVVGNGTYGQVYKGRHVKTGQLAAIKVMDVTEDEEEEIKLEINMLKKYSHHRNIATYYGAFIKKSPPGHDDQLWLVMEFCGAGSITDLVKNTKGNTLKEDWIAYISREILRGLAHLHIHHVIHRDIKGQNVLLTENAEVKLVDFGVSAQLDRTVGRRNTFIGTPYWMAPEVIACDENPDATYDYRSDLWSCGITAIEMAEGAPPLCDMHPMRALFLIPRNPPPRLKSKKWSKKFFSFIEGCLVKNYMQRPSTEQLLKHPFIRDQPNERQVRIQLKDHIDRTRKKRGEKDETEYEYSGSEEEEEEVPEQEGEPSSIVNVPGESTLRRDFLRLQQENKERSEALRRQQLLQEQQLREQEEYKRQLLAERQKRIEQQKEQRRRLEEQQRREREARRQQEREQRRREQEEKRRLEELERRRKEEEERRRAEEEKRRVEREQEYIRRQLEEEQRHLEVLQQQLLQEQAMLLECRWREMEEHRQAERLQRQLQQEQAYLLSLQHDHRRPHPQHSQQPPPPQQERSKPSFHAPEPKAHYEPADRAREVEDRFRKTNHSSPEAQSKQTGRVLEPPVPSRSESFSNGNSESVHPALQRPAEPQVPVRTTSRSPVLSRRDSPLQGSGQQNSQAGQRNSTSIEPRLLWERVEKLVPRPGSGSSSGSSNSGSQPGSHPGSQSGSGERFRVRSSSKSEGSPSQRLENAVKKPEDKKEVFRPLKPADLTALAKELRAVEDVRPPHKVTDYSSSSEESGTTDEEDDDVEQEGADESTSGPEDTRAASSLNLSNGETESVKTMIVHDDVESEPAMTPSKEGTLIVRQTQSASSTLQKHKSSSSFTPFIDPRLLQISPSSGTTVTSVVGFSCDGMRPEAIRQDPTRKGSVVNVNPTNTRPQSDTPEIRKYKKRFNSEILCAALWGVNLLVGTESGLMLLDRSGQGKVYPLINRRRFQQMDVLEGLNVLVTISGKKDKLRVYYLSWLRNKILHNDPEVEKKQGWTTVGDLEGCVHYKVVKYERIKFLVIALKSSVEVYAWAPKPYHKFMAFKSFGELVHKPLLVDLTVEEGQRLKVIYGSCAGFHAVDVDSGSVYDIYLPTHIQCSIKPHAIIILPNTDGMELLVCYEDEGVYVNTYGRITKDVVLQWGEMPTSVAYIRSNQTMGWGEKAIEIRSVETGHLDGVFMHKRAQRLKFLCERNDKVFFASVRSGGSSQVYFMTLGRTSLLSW
Experiment [9] is described as follows: Anti-inflammatory activity against human derived high respond PBMC cells assessed as inhibition in stimulated IL-8 cytokine release incubated for 2 hrs in the presence of LPS/SEB/aCD28 by Luminex based sandwich immunoassay. In kind it is functional, cell-based.
Experiment [10] relates to Proto-oncogene tyrosine-protein kinase receptor Ret (Homo sapiens), P07949 [M918T]. Briefly: Inhibition of RET M918T (unknown origin) assessed as remaining activity at 1 uM by Kinome scan method relative to control.
Experiment [11] addresses Cyclin-dependent kinase 19 (Homo sapiens) (UniProt Q9BWU1). In words: Inhibition of CDK11 (unknown origin) assessed as remaining activity at 1 uM by Kinome scan method relative to control.
The target of experiment [12] is Dual specificity protein kinase TTK (Homo sapiens) (UniProt P33981). Briefly: Inhibition of TTK (unknown origin) assessed as remaining activity at 1 uM by Kinome scan method relative to control.
Sequence of Dual specificity protein kinase TTK (Homo sapiens) (P33981 whole entry): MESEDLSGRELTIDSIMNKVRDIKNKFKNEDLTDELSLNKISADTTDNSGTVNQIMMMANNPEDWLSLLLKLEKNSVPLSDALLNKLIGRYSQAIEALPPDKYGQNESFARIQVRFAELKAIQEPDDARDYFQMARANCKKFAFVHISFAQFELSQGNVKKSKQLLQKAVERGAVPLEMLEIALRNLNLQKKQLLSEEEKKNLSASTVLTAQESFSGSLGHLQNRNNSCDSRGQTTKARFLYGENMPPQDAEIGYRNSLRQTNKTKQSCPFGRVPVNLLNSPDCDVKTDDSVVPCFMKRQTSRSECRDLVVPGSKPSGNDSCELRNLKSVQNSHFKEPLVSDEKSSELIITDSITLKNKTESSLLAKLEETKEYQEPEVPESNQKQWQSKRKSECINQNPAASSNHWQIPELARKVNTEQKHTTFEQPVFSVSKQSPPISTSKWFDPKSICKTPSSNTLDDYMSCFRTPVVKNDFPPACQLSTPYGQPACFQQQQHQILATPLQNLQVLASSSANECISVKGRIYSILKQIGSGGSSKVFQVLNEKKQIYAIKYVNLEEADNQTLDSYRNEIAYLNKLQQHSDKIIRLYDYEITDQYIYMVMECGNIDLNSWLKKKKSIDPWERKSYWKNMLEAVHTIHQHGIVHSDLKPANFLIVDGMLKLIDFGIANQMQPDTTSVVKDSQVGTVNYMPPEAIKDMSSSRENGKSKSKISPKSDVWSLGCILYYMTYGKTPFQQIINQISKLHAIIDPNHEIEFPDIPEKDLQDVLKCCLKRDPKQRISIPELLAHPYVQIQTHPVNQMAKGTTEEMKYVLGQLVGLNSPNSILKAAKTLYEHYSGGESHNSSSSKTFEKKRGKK
Experiment [13] addresses Serine/threonine-protein kinase Sgk2 (Homo sapiens) (UniProt Q9HBY8). Briefly: Inhibition of human SGK2 assessed as residual activity at 1 uM using RBER-GSK3(14-27) as substrate in presence of 33P-ATP by ProQinase assay relative to control.
Experiment [14] has as its target Misshapen-like kinase 1 (Homo sapiens) (UniProt Q8N4C8). In words: Inhibition of human MINK1 assessed as residual activity at 1 uM using RBER-CHKtide as substrate in presence of 33P-ATP by ProQinase assay relative to control.
The target in experiment [15] is Tyrosine-protein kinase SYK (Homo sapiens) (UniProt P43405). In words: Inhibition of SYK (unknown origin) assessed as remaining activity at 1 uM by Kinome scan method relative to control.
Experiment [16] concerns the target Serine/threonine-protein kinase 16 (Homo sapiens) (UniProt O75716). Briefly: Inhibition of STK16 (unknown origin) assessed as remaining activity at 1 uM by Kinome scan method relative to control.
Experiment [17] deals with Hepatocyte growth factor receptor (Homo sapiens), P08581 [M1250T]. In words: Inhibition of human MET M1250T mutant assessed as residual activity at 1 uM using poly(Ala,Glu,Lys,Tyr)6:2:5:1 as substrate in presence of 33P-ATP by ProQinase assay relative to control.
Experiment [18] addresses Fibroblast growth factor receptor 4 (Homo sapiens) (UniProt P22455). In words: Inhibition of human FGFR4 assessed as residual activity at 1 uM using polyEy as substrate in presence of 33P-ATP by ProQinase assay relative to control.
Experiment [19] has as its target Eukaryotic translation initiation factor 2-alpha kinase 1 (Homo sapiens) (UniProt Q9BQI3). Briefly: Inhibition of human HRI assessed as residual activity at 1 uM using casein as substrate in presence of 33P-ATP by ProQinase assay relative to control.
Experiment [20] addresses Non-receptor tyrosine-protein kinase TYK2 (Homo sapiens) (UniProt P29597). Briefly: Inhibition of human TYK2 assessed as residual activity at 1 uM using poly(Ala,Glu,Lys,Tyr)6:2:5:1 as substrate in presence of 33P-ATP by ProQinase assay relative to control.
For experiment [21], the system named is Mast/stem cell growth factor receptor Kit (Homo sapiens), P10721 [V559D,V654A]. In words: Inhibition of KIT V559D/V654A mutant (unknown origin) assessed as remaining activity at 1 uM by Kinome scan method relative to control.

The text below walks through data of ChEMBL document CHEMBL5696441 (Nat Chem Biol, 2011).

Broadly, the IC50 is the concentration that gives 50% inhibition.

Sequence of Misshapen-like kinase 1 (Homo sapiens) (Q8N4C8 whole entry, looked up): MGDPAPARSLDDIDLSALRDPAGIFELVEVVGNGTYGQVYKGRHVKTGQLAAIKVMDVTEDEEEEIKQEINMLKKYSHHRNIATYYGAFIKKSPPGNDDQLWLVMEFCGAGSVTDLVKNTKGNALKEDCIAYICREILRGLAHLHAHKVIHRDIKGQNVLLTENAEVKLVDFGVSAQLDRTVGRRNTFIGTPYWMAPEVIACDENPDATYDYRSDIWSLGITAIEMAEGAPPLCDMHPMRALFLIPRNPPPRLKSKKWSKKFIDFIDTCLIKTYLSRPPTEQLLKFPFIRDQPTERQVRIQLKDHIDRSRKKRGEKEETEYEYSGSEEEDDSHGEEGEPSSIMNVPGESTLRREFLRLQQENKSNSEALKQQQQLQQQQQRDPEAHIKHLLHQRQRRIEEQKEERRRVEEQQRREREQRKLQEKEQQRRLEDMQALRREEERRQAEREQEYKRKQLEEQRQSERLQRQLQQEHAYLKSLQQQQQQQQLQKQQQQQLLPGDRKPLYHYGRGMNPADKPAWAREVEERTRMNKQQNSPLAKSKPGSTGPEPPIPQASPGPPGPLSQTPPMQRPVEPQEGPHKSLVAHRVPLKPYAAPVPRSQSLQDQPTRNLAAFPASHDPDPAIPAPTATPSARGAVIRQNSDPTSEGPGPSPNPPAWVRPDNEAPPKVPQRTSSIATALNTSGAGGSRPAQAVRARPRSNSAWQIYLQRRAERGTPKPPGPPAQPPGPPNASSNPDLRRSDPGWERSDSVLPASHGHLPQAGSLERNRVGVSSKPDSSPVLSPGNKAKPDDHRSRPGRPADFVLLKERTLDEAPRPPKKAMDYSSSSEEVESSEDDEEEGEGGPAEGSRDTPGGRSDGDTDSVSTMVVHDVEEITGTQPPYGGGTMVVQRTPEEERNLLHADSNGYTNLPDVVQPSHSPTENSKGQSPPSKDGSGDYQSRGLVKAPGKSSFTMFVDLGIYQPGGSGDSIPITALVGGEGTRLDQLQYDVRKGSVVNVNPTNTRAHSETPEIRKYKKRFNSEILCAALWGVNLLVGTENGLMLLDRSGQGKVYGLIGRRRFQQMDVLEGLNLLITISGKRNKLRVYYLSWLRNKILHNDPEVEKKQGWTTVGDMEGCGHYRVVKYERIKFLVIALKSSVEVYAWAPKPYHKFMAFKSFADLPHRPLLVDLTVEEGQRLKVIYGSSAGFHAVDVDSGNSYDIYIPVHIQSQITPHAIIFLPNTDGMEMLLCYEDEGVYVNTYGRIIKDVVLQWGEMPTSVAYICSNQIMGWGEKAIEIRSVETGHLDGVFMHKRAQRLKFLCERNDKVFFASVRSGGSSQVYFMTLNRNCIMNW
Sequence of Serine/threonine-protein kinase 16 (Homo sapiens) (O75716 whole entry): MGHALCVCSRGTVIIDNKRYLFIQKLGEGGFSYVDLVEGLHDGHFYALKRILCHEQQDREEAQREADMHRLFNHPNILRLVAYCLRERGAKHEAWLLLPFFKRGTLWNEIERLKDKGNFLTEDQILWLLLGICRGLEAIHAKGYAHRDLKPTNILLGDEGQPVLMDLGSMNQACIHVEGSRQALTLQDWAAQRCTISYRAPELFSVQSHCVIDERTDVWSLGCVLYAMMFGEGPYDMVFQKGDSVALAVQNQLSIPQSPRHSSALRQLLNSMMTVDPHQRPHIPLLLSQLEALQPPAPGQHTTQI
Sequence of Fibroblast growth factor receptor 4 (Homo sapiens) (P22455 22-802 limits assumed): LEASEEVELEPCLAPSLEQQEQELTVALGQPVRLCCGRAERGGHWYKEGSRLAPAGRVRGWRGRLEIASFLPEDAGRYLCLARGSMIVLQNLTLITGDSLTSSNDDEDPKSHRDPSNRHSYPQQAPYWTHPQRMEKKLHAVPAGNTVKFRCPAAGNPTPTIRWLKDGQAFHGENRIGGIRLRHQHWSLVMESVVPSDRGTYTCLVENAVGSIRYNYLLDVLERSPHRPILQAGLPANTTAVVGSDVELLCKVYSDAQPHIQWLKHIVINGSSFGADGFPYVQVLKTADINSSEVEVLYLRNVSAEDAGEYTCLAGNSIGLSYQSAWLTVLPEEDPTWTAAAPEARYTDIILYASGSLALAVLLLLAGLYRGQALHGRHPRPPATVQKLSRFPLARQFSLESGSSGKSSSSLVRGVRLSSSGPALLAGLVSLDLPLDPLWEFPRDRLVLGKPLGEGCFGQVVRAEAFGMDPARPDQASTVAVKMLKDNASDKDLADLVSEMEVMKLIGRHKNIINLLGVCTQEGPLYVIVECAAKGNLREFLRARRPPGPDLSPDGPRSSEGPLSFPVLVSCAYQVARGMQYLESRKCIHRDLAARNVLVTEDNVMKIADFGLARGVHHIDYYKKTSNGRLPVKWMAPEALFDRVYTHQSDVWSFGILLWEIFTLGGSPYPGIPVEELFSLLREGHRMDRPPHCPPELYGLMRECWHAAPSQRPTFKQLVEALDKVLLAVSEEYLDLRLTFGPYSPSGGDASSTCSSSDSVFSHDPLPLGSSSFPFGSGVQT

For the compound `O=C1c2ccc(Nc3ccc(F)cc3F)cc2CCc2ccc(OC[C@H](O)CO)cc21` [Skepinone-L], the Activity in [1] came out at 89%; in experiment [2] it was 100%; in [3], 95%; in [4] it was 97%; in experiment [5], 89%; in [6] it was 96%. The Activity in experiment [7] worked out at 96%; in [8], 79%; in experiment [10] it was 100%; in experiment [11] it was 100%; in experiment [12], 100%; in experiment [13] it was 89%. Moreover, the Activity in experiment [14] worked out at 94%; in [15] it was 100%; in [16], 87%; in [17] it was 100%; in experiment [18], 103%; in experiment [19], 106%. Besides, the Activity was found to be 96% in experiment [20] and 100% in [21]. In addition, the IC50 in [9] came out at 0.09 µM.
